{"source": "patent EP4681707A1", "about": "“METHOD FOR TREATING DISEASES BY USING REPARIXIN ALONE OR IN COMBINATION WITH ANTI-PD-1 ANTIBODY” (Shandong Cancer Hospital Affiliated to Shandong First …, priority 2023, dated 2024)", "key": {"Luciferase-MC38 cells": {"tested_on": "Luciferase-MC38 cells", "experiment": "Mouse CRC liver metastasis model by intra-splenic injection, reparixin alone (Example 4)", "assay_type": "in vivo, C57BL/6 mice", "details": "for liver weight / liver/body weight ratio: reparixin 30 mg/kg intraperitoneally every other day, day 12", "experimental": "Experimental methods: Luciferase-MC38 cells were intrasplenically injected into C57BL/6 mice complicated by NAFLD or uncomplicated by NAFLD. Subsequently, reparixin (MCE, 30 mg/kg) or PBS was intraperitoneally injected every other day. On day 6 after tumor inoculation, the extent of liver metastasis was observed by imaging using an In vivo Imaging System (IVIS, PerkinElmer, Hopkinton, MA, USA). On day 12 after tumor inoculation, the mice were sacrificed under isoflurane anesthesia and soaked in alcohol for 30 min. Livers from each group of mice were prepared into single-cell suspensions, which were subjected to blocking, staining, incubation, and subsequent detection on the machine.\n(§1) Experimental grouping: The experimental groups were injected with reparixin, and the control group was injected with PBS.\n(A) Experimental treatment protocol: After Luciferase-MC38 cells were inoculated, PBS or reparixin was injected on days 3, 5, 7, 9, and 11, respectively, and the mice were sacrificed on day 12. (B) In vivo bioluminescence imaging of each group (CRLM group, CRLM + reparixin group, NAFLD + CRLM group, NAFLD + CRLM + reparixin group) on day 6 after tumor inoculation. (C) Representative gross anatomical views of livers of each group of mice (samples collected on day 12 after treatment); yellow arrows represent tumors. (D) Liver weight of each group of mice; n = 5-6."}, "IL-1β": {"tested_on": "IL-1β", "details": "after MCAo in mice; cited from earlier work"}, "NAFLD": {"tested_on": "NAFLD", "experiment": "Mouse NAFLD model induced by 60% high-fat feed, oil red staining and immunohistochemistry of liver (Example 6)", "assay_type": "in vivo", "details": "NAFLD mice, 30 mg/kg intraperitoneally once every 2 days", "experimental": "Experimental methods: The \"Western diet\" (WD) was simulated with 60% high-fat feed, and the NAFLD model could be established within 12 weeks. After the establishment of the animal model, the mice were intraperitoneally injected once every 2 days at a dose of 30 mg/kg. Liver tissues of the mice were collected on days 12, 15, and 21 of administration, and oil red staining was performed on the liver tissues of each group.\nas §1\n(A) After NAFLD was established, raparixin was intraperitoneally injected once every two days; macroscopic views of representative liver tissues and oil red staining of liver sections in each group are shown, and the scale represents 50 µm. (B) Oil red staining positive area rate of NAFLD and 12-day treatment groups, n = 4. (C) Oil red staining positive area rate of NAFLD and 15-day treatment groups, n = 4. Statistical test: mean + SD, Student's t-test, * p < 0.05.\nA: representative gross views of livers of mice in the NAFLD treatment group and untreated group, and oil red O staining and immunohistochemical staining on liver sections of the two groups of mice, with the scale bar being 100 µm; B-C: comparison of mean immunohistochemical staining densities of IL6 (B) and CXCR2 (C) in livers of NAFLD mice treated with reparixin for 21 days (mean ± SD, Student's t test)."}, "gastric cancer": {"tested_on": "gastric cancer", "details": "treatment of gastric cancer; cited from earlier work"}, "[1]": {"details": "5 mg/kg subcutaneously once daily for 3 consecutive weeks; cited from earlier work"}}}
{"smiles": "CC(C)Cc1ccc([C@@H](C)C(=O)NS(C)(=O)=O)cc1", "note": "[reparixin]", "values": [{"measurement": "liver weight", "setting": "Luciferase-MC38 cells; CRLM animal model", "result": "decreased significantly"}, {"measurement": "liver/body weight ratio", "setting": "Luciferase-MC38 cells; CRLM animal model", "result": "decreased significantly"}, {"measurement": "liver weight", "setting": "Luciferase-MC38 cells; NAFLD + CRLM animal model", "result": "decreased significantly"}, {"measurement": "liver/body weight ratio", "setting": "Luciferase-MC38 cells; NAFLD + CRLM animal model", "result": "decreased significantly"}, {"measurement": "liver metastasis burden", "setting": "Luciferase-MC38 cells; especially in mice complicated by NAFLD, 30 mg/kg intraperitoneally", "result": "can reduce the liver metastasis burden"}, {"measurement": "level of IL-1β in the brain", "setting": "IL-1β", "result": "reduce"}, {"measurement": "inflammation", "setting": "NAFLD; IL6 and CXCR2 staining after 21 days", "result": "reduce inflammation"}, {"measurement": "hepatocellular steatosis", "setting": "NAFLD; days 12, 15, 21", "result": "significantly ameliorated"}, {"measurement": "lipid vacuoles", "setting": "NAFLD; days 12, 15, 21", "result": "reduced"}, {"measurement": "overall survival (OS) rate", "setting": "gastric cancer", "result": "prolongs"}, {"measurement": "programmed death ligand 1 macrophages", "setting": "gastric cancer", "result": "reduction"}, {"measurement": "blood flow", "setting": "[1]", "result": "increased"}, {"measurement": "systolic blood pressure", "setting": "[1]", "result": "effectively reduced"}]}
